Experimental data: the NIST ThermoML archive (doi:10.1021/je100315g)
Numbers after ± are expanded uncertainties.

Columns and labels:
[1] = 101 kPa, Liquid
[2] = xn = mol fraction of the nth substance listed; settings: 101 kPa, Liquid

CCCC[n+]1ccn(C)c1.O=S(=O)([N-]S(=O)(=O)C(F)(F)F)C(F)(F)F
[1]
Settings | mass density [kg/m3]
293.15 K | 1441.63 ± 0.82
298.15 K | 1436.83 ± 0.81
303.13 K | 1431.98 ± 0.81
308.15 K | 1427.16 ± 0.8
313.15 K | 1422.36 ± 0.79

CCn1cc[n+](C)c1.O=S(=O)([N-]S(=O)(=O)C(F)(F)F)C(F)(F)F
[1]
Settings | mass density [kg/m3]
293.15 K | 1522.08 ± 0.95
298.15 K | 1516.96 ± 0.94
303.13 K | 1511.85 ± 0.93
308.15 K | 1506.8 ± 0.92
313.15 K | 1501.74 ± 0.91

CCCC[n+]1ccn(C)c1.O=S(=O)([N-]S(=O)(=O)C(F)(F)F)C(F)(F)F + C1CCOC1
mass density [kg/m3], [2]
Settings | x1 = 0.0488 | x1 = 0.1139 | x1 = 0.1771 | x1 = 0.2815 | x1 = 0.4048 | x1 = 0.4897 | x1 = 0.6329 | x1 = 0.7468 | x1 = 0.9071 | x1 = 1
293.15 K | 978.17 ± 0.34 | 1069.71 ± 0.44 | 1136.61 ± 0.54 | 1218.29 ± 0.66 | 1286.31 ± 0.73 | 1321.41 ± 0.75 | 1367.37 ± 0.77 | 1395.56 ± 0.79 | 1426.74 ± 0.81 | 1441.63 ± 0.82
298.15 K | 973.69 ± 0.35 | 1065.22 ± 0.43 | 1132.17 ± 0.53 | 1213.74 ± 0.65 | 1281.83 ± 0.73 | 1317.1 ± 0.75 | 1362.88 ± 0.77 | 1391.06 ± 0.78 | 1421.92 ± 0.8 | 1436.83 ± 0.81
303.13 K | 970.01 ± 0.35 | 1060.65 ± 0.42 | 1128.01 ± 0.53 | 1209.23 ± 0.64 | 1277.24 ± 0.72 | 1312.14 ± 0.74 | 1358.73 ± 0.76 | 1386.29 ± 0.77 | 1417.19 ± 0.79 | 1431.98 ± 0.81
308.15 K | 964.12 ± 0.38 | 1055.92 ± 0.43 | 1122.34 ± 0.53 | 1204.63 ± 0.64 | 1272.69 ± 0.71 | 1307.42 ± 0.73 | 1353.21 ± 0.75 | 1381.45 ± 0.77 | 1412.45 ± 0.78 | 1427.16 ± 0.8

CCn1cc[n+](C)c1.O=S(=O)([N-]S(=O)(=O)C(F)(F)F)C(F)(F)F + C1CCOC1
mass density [kg/m3], [2]
Settings | x1 = 0.1037 | x1 = 0.2024 | x1 = 0.3255 | x1 = 0.3841 | x1 = 0.4425 | x1 = 0.5469 | x1 = 0.6863 | x1 = 0.7697 | x1 = 0.9177 | x1 = 1
293.15 K | 1065.02 ± 0.46 | 1178.77 ± 0.62 | 1278.55 ± 0.76 | 1315.59 ± 0.8 | 1347.51 ± 0.83 | 1395.4 ± 0.86 | 1444.8 ± 0.89 | 1469.16 ± 0.9 | 1505.22 ± 0.93 | 1522.08 ± 0.95
298.15 K | 1061.32 ± 0.43 | 1173.6 ± 0.61 | 1274.14 ± 0.76 | 1310.96 ± 0.79 | 1342.57 ± 0.82 | 1390.69 ± 0.85 | 1440.1 ± 0.88 | 1464.51 ± 0.89 | 1500.21 ± 0.92 | 1516.96 ± 0.94
303.13 K | 1056.14 ± 0.42 | 1168.46 ± 0.6 | 1269.66 ± 0.75 | 1306.48 ± 0.78 | 1337.7 ± 0.81 | 1385.78 ± 0.84 | 1435.45 ± 0.87 | 1459.45 ± 0.89 | 1495.17 ± 0.91 | 1511.85 ± 0.93
308.15 K | 1051.2 ± 0.47 | 1163.55 ± 0.61 | 1264.42 ± 0.74 | 1301.8 ± 0.77 | 1332.56 ± 0.8 | 1381.31 ± 0.84 | 1430.62 ± 0.86 | 1454.67 ± 0.88 | 1490.13 ± 0.91 | 1506.8 ± 0.92
